Data published in US9145377B2, “G-quadruplex stabilising agent” (University College London, priority 2011, dated 2015).

Legend:
HIF-1β = test: Western blotting for HIF-1β protein; type: cell-based, human; conditions: RCC4 or 786-0 cells, 4 h
Excerpt: (§1) A498 human renal, 786-0 human renal, MCF-7 human breast, Mia-Pa-Ca human pancreatic, Panc-1 human pancreatic, and PC-3 human prostate cancer cells were obtained from American Type Culture Collection (Rockville, Md.). Human RCC4 and RCC4/VHL cells were obtained from Professor P. Maxwell (University College London, UK). RCC4 cells lack pVHL therefore express constitutively high levels of HIF-1α. These cells were stably transfected with a wild-type pVHL gene, as previously described. All cells were grown in humidified 95% air, 5% CO2 at 37° C. in Dulbecco's modified Eagle's medium (DMEM), RPMI or MEM medium supplemented with 10% fetal bovine serum (FBS) and 2 mM L-Glutamine according to advice from ATCC (all reagents were obtained from Gibco, Invitrogen, UK). HIF-1α and HIF-2α antibodies were obtained from BD Transduction Labs, AKT antibody was obtained from Cell Signalling Biotechnology, and lamin NC, actin, HIF-1β, HSP-90, and Raf-1 antibodies were from Santa Cruz Biotechnology.
(§2) Culture flasks were incubated for various times at 37° C. in humidified air, 5% CO2 (normoxia) or 1% O2, 5% CO2, 94% N2 (hypoxia) using an InVivo Hypoxia Workstation 400 with a Ruskin hypoxic gas mixer (Biotrace International). […]
(§3) Western blotting was performed as described previously. Blots were quantified using ImageQuant software (Molecular Dynamics). […]

AKT = test: Western blotting for AKT in RCC4 and RCC4VHL cells; type: cell-based, human; conditions: CL67 5×IC50, normoxia (20% oxygen)
Excerpt: as §1
(§4) Western blotting was performed as described previously. Blots were quantified using ImageQuant software (Molecular Dynamics). Nuclear and cytoplasmic extracts were prepared using NE-PER Nuclear and Cytoplasmic Extraction Reagents (Pierce Biotechnology).
(§5) Cells were then lysed and Western blotting was performed. Probing for HSP-90, Raf-1, AKT and actin (as a loading control).

Raf-1 = test: Western blotting for Raf-1 in RCC4 and RCC4VHL cells; type: cell-based, human; conditions: CL67 5×IC50, normoxia (20% oxygen)
Excerpt: as §1, §4, §5

HIF-1α mRNA = test: Reverse transcriptase PCR (qRT-PCR) of HIF-1α transcripts in RCC4 cells; type: cell-based, human; conditions: 4 h, normoxia
Procedure: Total RNA was isolated from approximately 10^7 cells using the RNeasy kit (Qiagen, Crawley, UK) according to the manufacturer's protocol. HIF-1α transcripts were quantified using two-step, quantitative real time PCR (qRTPCR). First-strand cDNA synthesis was performed for each sample with a Protoscript M-MuLV Taq RT-PCR kit (New England Biolabs, MA, USA) using 1 μg total RNA and oligo-dT primers. qPCR was performed using Stratagene Brilliant III SYBR Green master mix in a Stratagene MX-3000P instrument (Agilent, Tex., USA) according to the manufacturer's instructions using 2 ng input cDNA and primers at 300 nM. […] Samples were normalised to β-actin. Differences in PCR efficiency were normalised using relative standard curves of cDNA pooled from all samples. P-values were determined for 2000 randomisations.
Cells were then lysed and RNA was prepared using a Qiagen RNeasy kit. RT PCR was then performed to determine relative levels of HIF-1α mRNA in each sample.

renal carcinoma cells = test: Growth inhibition, sulforhodamine B (SRB) assay, 96 h exposure; type: cell-based, human; conditions: normoxia (20% oxygen)
Excerpt: as §1

HIF-2α = test: Western blotting for HIF-2α protein in 786-0 cells; type: cell-based, human; conditions: hypoxia (1% oxygen), 4 h dose course
Excerpt: as §1, §2, §3

HSP-90 = test: Western blotting for HSP-90 in RCC4 and RCC4VHL cells; type: cell-based, human; conditions: CL67 5×IC50, normoxia (20% oxygen)
Excerpt: as §1, §4, §5

HIF-1 transactivation = test: Luciferase reporter assay (hypoxia response element, HRE) in RCC4 cells; type: cell-based, human; conditions: normoxia or hypoxia (1% oxygen), 4 h
Procedure: A pGL3 firefly luciferase reporter plasmid containing the phosphoglycerate kinase hypoxia-responsive element was supplied by Professor P. Maxwell (University College London, UK) [1]. The empty pGL3 control plasmid and the pRL-CMV Renilla luciferase plasmids were obtained from Promega. […] Firefly and Renilla luciferase activities were measured using the Dual Luciferase Reporter Assay System (Promega) according to the manufacturer's instructions.
In FIG. 6(A) RCC4 cells were co-transfected with either a vector expressing luciferase under the control of multiple copies of the hypoxia response element (HRE; kindly donated by G. Mellillo, NCI) or an empty vector control (pGL3) in addition to a vector expressing renilla luciferase (to control for transfection efficiency). […] Luciferase activity was then measured using the Promega Dual Luciferase assay Kit and results are expressed as a percentage of the activity of untreated, normoxic cells.

[1] = Solubility limit in aqueous media (dose ranging, sterile dH2O); type: physicochemical; conditions: dissolved in sterile dH2O, intra-peritoneal dose ranging in CD1 mice
Procedure: A dose range assay was performed in female CD1 mice, with an initial mean weight of 25 g (Harlan UK Ltd,).

VEGF = VEGF measurement in cell culture medium by ELISA; type: cell-based, human; conditions: RCC4 cells, CL67 5×IC50 or dose indicated, 4 h or time indicated
Procedure: (§6) Culture flasks were incubated for various times at 37° C. in humidified air, 5% CO2 (normoxia) or 1% O2, 5% CO2, 94% N2 (hypoxia) using an InVivo Hypoxia Workstation 400 with a Ruskin hypoxic gas mixer (Biotrace International). After incubation, cells were washed twice with cold PBS equilibrated with the same gas mixture. In some studies, medium was removed at the end of incubation and stored at […] for measurement of vascular endothelial growth factor (VEGF) levels.

HIF-1α = test: Western blotting for HIF-1α protein in RCC4 / RCC4VHL cells; type: cell-based, human
Excerpt: as §1, §6, §4
Cells were then lysed and Western blotting was performed probing for HIF-1α, HIF-2α, HIF-1β, or lamin NC (as a loading control).

For `CCN(CC)CC(=O)Nc1cccc(-n2cc(-c3ccc4ccc(-c5cn(-c6cccc(NC(=O)CN(CC)CC)c6)nn5)cc4c3)nn2)c1` [CL67, N,N′-((4,4′-(Naphthalene-2,7-diyl)bis(1H-1,2,3-triazole-4,1-diyl))bis(3,1-phenylene))bis(2-(diethylamino)acetamide)], the “HIF-1β protein level (Western blot)” value (HIF-1β) was “did not affect”, the melting point was 97 to 99 °C and the “expression of AKT (Western blot)” value (AKT) was “No differences”. For the same molecule, the “expression of Raf-1 (Western blot)” value (Raf-1) was “No differences”, the “relative expression of HIF-1α mRNA compared to untreated control cells (RT PCR)” value (HIF-1α mRNA) was “inhibits formation of HIF-1α mRNA” and the “sensitivity of renal cancer cells to inhibition of cell growth compared to other cancer cell lines (breast, pancreatic, prostate)” value (renal carcinoma cells) was “enhanced sensitivity”. For the same molecule, the “HIF-2α protein level (Western blot)” value (HIF-2α) was “inhibited”, the “expression of HSP90 (Western blot)” value (HSP-90) was “No differences” and the “HIF-1 transactivation (HRE luciferase activity)” value (HIF-1 transactivation) was “inhibited”. For the same molecule, the “solubility limit of the drug in aqueous media” value [1] was 10 mg/kg, the “VEGF levels in medium (ELISA)” value (VEGF) was “inhibited” and the “HIF-1α protein (Western blot) in RCC4VHL cells” value (HIF-1α; RCC4VHL cells (stably transfected with pVHL), 0, 1, 5 or 10×IC50, normoxia or hypoxia (1% oxygen)) was “inhibited”. For the same molecule, the “HIF-1α protein (Western blot) in RCC4 cells (lacking pVHL)” value (HIF-1α; RCC4 cells, 0, 1, 5 or 10×IC50, normoxia (20% oxygen) or hypoxia (1% oxygen)) was “inhibited” and the “HIF-1α protein level (Western blot)” value (HIF-1α; RCC4 cells, normoxia, 4 h dose course, time course at 5×IC50) was “inhibited”.
